What was measured:
SPARC mRNA expression = assay: 5Aza-dC / TSA treatment of pancreatic cancer cell lines harboring SPARC methylation, SPARC mRNA by RT-PCR; type: cell-based, human
Procedure: (§1) Four μg of total RNA was reverse-transcribed using Superscript II (Invitrogen). The SPARC RT-PCR reaction was performed under the condition as follow: 95° C. for 5 minutes; then 28 cycles of 95° C. for 20 seconds, 63° C. for 20 seconds, and 72° C. for 20 seconds; and a final extension of 4 minutes at 72° C. Primer sequences were 5′-AAGATCCATGAGAATGAGAAG-3′ (forward) (SEQ ID NO: 11) and 5′-AAA AGC GGG TGG TGC AAT G-3′ (reverse) (SEQ ID NO: 12). To check the integrity of mRNA, glyceraldehyde-3-phosphate dehydrogenase (GAPDH) was also amplified in the same PCR condition. For semiquantitative analysis, the RT-PCR was performed with primers for SPARC and GAPDH in duplex reactions, and range of linear amplification for both genes was examined with serial PCR cycles to determine the optimal cycle. The relative intensity of SPARC mRNA expression was then corrected for variable RNA recovery using the corresponding GAPDH mRNA measurement as a surrogate for total mRNA.
Eight pancreatic cancer cell lines (AsPC1, BxPC3, Capan2, CFPAC1, Hs766T, MiaPaCa2, PL3, and PL12) were treated with 5Aza-dC. Cells in log phase growth were seeded in T-75 culture flasks. After overnight incubation, the cells were exposed continuously to 5Aza-dC (1 μM) for 4 days, with a change of drug and culture medium every 24 hours.
To confirm that DNA methylation is a mechanism for the silencing of SPARC, we treated 8 pancreatic cancer cell lines harboring SPARC methylation with the demethylating agent 5Aza-dC.

[1] = system: SPARC gene expression in pancreatic cancer cells; conditions: pancreatic cancer cells treated with 5Aza-dC; Sato et al., manuscript submitted; cited from earlier work
[2] = system: SPARC mRNA expression in Panc1; assay: Effect of TGF-β on SPARC mRNA expression in pancreatic cancer cell lines; type: cell-based, human; conditions: TGF-β 5 ng/ml, data not shown
Procedure: as §1
(§2) Because several growth factors such as TGF-β are known to induce the SPARC expression in fibroblasts (Wrana et al., 1991; Reed et al., 1994), and because TGF-β is one of the major secreted proteins highly expressed by pancreatic cancer cells (Friess et al., 1993), we examined the effect of TGF-β on SPARC expression in fibroblasts (panc-f3). […]

[3] = system: SPARC mRNA expression in AsPC1; assay: as above; type: cell-based, human; conditions: TGF-β 5 ng/ml, data not shown
Procedure: as §1, §2

[4] = system: SPARC mRNA expression in fibroblasts (panc-f3); assay: Effect of TGF-β on SPARC expression in fibroblasts (semiquantitative RT-PCR); type: cell-based, human; conditions: TGF-β 5 ng/ml, 24 hours
Procedure: as §1, §2

Panc1 cells = assay: Effect of exogenous SPARC on proliferation of pancreatic cancer cells (cell count by hemacytometer); type: cell-based, human; conditions: SPARC 10 μg/ml, 72 hours
Procedure: (§3) We treated two pancreatic cancer cell lines (AsPC1 and Panc1) with exogenous SPARC. Cells in log phase growth were seeded at a density of 1×10^4 cells/well in 24-well plates. After overnight incubation, cells were treated with or without human platelet SPARC protein (10 μg/ml) for 72 hours, and the number of cells were counted by hemacytometer in three independent wells.
(§4) The effect of exogenous SPARC protein on growth of pancreatic cancer cells in vitro was also examined. We treated two pancreatic cancer cell lines (AsPC1 and Panc1) with purified SPARC protein and counted the number of cells after 72 hours.

AsPC1 cells = assay: as above; type: cell-based, human; conditions: SPARC 10 μg/ml, 72 hours
Procedure: as §3, §4

Nc1ncn([C@H]2C[C@H](O)[C@@H](CO)O2)c(=O)n1 [5Aza-dC, 5-Aza-2′-deoxycytidine]
SPARC mRNA expression after treatment (RT-PCR) (SPARC mRNA expression; 8 pancreatic cancer cell lines harboring SPARC methylation, 5Aza-dC 1 μM, 4 days): restored in 7 of the 8 cell lines
SPARC mRNA expression after treatment (RT-PCR) (SPARC mRNA expression; Hs766T cell line): did not restore the SPARC expression
induction of SPARC gene expression (oligonucleotide microarrays) [1]: ≥ 5 fold

TGF-β: human recombinant transforming growth factor (TGF)-β1 purchased from Sigma
increase in SPARC mRNA expression [2]: ~1,5 fold
SPARC transcript after treatment [3]: remained undetectable
increase in SPARC mRNA expression [4]: ~3,3 fold

CC(/C=C/C(=O)NO)=C\[C@@H](C)C(=O)c1ccc(N(C)C)cc1 [trichostatin A (TSA), trichostatin A]
SPARC mRNA expression after treatment (RT-PCR) (SPARC mRNA expression; Hs766T cell line): did not induce the SPARC expression

B1: SPARC: Purified human platelet SPARC protein purchased from Calbiochem (protein, UniProt P09486 18-303, looked up)
SPARC: APQQEALPDETEVVEETVAEVTEVSVGANPVQVEVGEFDDGAEETEEEVVAENPCQNHHCKHGKVCELDENNTPMCVCQDPTSCPAPIGEFEKVCSNDNKTFDSSCHFFATKCTLEGTKKGHKLHLDYIGPCKYIPPCLDSELTEFPLRMRDWLKNVLVTLYERDEDNNLLTEKQKLRVKKIHENEKRLEAGDHPVELLARDFEKNYNMYIFPVHWQFGQLDQHPIDGYLSHTELAPLRAPLIPMEHCTTRFFETCDLDNDKYIALDEWAGCFGIKQKDIDKDLVI
growth inhibition (Panc1 cells; P<0.0001): ~30%
cell number (Panc1 cells; mean±SD, untreated 5.0±0.4): 3.5±0.4 ×10^4 cells
growth suppression (AsPC1 cells; P=0.001): ~27%
cell number (AsPC1 cells; mean±SD, untreated 5.8±0.8): 4.2±0.3 ×10^4 cells
